Test results from paper PMC3527569, “Anti-Inflammatory and Vasoprotective Activity of a Retroviral-Derived Peptide, Homologous to Human Endogenous Retroviruses: Endothelial Cell Effects” (PLoS ONE, 2012).
Where a SMILES comes first, the peptide text is derived from it. Bridges are numbered along the chain shown (N, C = ends). Roman numbers before positions name the chains, in order.

Legend:
TNF-α = assay: LPS-induced TNF-α release by human PBMC (sandwich ELISA); format: cell-based; conditions: human PBMC + LPS (S. typhosa), 18-24 h, 37°C, peptide 10 nM-100 µM in triplicate, IC50 estimated from graph, representative set, one volunteer
Description: (§1) Cytokine Assays: One-hundred µL of PBMC (2 x 10^6/ml in Complete Medium) were added to each well of a flat-bottom, 96-well tissue culture plate. To each well was then added 50 µL of media or peptide (4X desired final concentration; in Complete Medium) and 50 µL of lipopolysaccharide (LPS; S. typhosa; Sigma, St. Louis, MO; 400 ng/ml Complete Medium). Each peptide was tested in triplicate at 5 log10 concentrations ranging from 100 µM to 10 nM. Plates were incubate 18-24 h at 37°C in 5% humidified CO2. Plates were then centrifuged and 100 µL of supernatant removed from each well and stored frozen at -80°C until assayed. Cytokines (TNF-α, IL-1β, IL-6, GM-CSF) were measured by sandwich ELISA assays (R & D Systems; Minneapolis, MN) using the manufacturer’s instructions. The released cytokine concentration was determined from a standard curve using recombinant cytokine provided with each kit.

IL-6 = assay: LPS-induced IL-6 release by human PBMC (sandwich ELISA); format: cell-based; conditions: 18-24 h, peptide 10 nM-100 µM in triplicate, IC50 estimated from graph
Description: as §1

GM-CSF = assay: LPS-induced GM-CSF release by human PBMC (sandwich ELISA); format: cell-based; conditions: 18-24 h, peptide 10 nM-100 µM in triplicate, IC50 estimated from graph
Description: as §1

PAF = assay: Zymosan-induced PAF release by adherent human PBMC; format: cell-based; conditions: 1 h peptide then Zymosan 90 min, IC50 estimated from graph
Description: Platelet Activating Factor (PAF) and Leukotriene B4 (LTB4) Assays: PBMC were prepared as described above and adjusted to 3.3 x 10^6 cells/ml in RPMI-1640 medium containing 5 mg/ml HSA (Sigma, St. Louis, MO). To each well of a 48-well tissue culture plate was added 0.3 ml of cell suspension. The plate was incubated for 2 h at 37°C and 5% CO2 to allow cells to adhere. The wells were then washed 3X with HHBSS (Hank’s Balanced Salt Solution with 5 mg/ml HSA) at room temperature (RT). One-hundred seventy-five µL of HHBSS or test material in HHBSS was then added to each well and the plates incubated for 1 h at 37°C and 5% CO2. Samples were set up in quadruplicate. To each of duplicate wells for each sample was then added 175 µL of HHBSS or HHBSS containing 600 µg/ml of Zymosan (Sigma, St. Louis, MO). The plates were then incubated for 90 min at 37°C and 5% CO2. The plates were centrifuged and supernatants removed for quantitation of PAF or LTB4 according to the kit manufacturer’s (Amersham Pharmacia; Piscataway, NJ) instructions. The released PAF or LTB4 concentration was determined from a standard curve using standards provided with each kit.

Chemotaxis = assay: Monocyte and neutrophil chemotaxis to FMLP (micro-chemotaxis chamber); format: cell-based, human; conditions: cells pre-incubated 60 min at 37°C with peptide (10 nM-100 µM), FMLP 10^-8 or 10^-9 M, 90 min, triplicate
Description: Monocyte and Neutrophil Chemotaxis: For monocyte chemotaxis, PBMC were prepared as described above but washed and resuspended to 2 x 10^6/ml in HBSS (10 mM HEPES, 0.5% BSA [low-endotoxin; Sigma, St. Louis, MO], pH 7.0). The percentage of monocytes in the cell preparation was determined by myeloperoxidase staining of fixed, cytospin-prepared slides and usually ranged between 15-25%. For neutrophil chemotaxis, neutrophils were prepared as described above and routinely contained 97-99% neutrophils. Effects of test materials on chemotaxis were measured using 48-well micro-chemotaxis chambers (Neuro-Probe; Cabin John, MD). Briefly, to 450 µL of cell suspension in a polypropylene centrifuge tube was added 50 µL of buffer or test material. Each sample was tested in triplicate. The tubes were then incubated for 60 min at 37°C in a shaking water bath. […] The stained filters were mounted on slides and the number of cells migrating though the filters determined under 600X magnification for 5 fields/well. Inhibition of chemotaxis was determined using that slide for which the positive control (untreated cells; either 10^-8 or 10^-9 M FMLP) gave the strongest response and was calculated in the following manner: […]

human blood monocytes = assay: [125I]-MN20054 binding/uptake by human blood monocytes; conditions: 100-fold molar excess unlabeled peptide, 60 min, 37°C, PBS 0.5% BSA pH 7.5, triplicate, gamma counting (Figure 6A)
Description: (Perkin Elmer; Boston, MA) using the chloramine-T method. Human blood monocytes (purified by adherence to plastic; 10^6/0.2 ml in PBS with 0.5% BSA, pH 7.5 in 12×75 mm polypropylene tubes) were incubated in triplicate at 37°C for 60 min with 40 pmol [^125I]-MN20054 (∼20 Ci/mmol) in the presence or absence of a 100-fold molar excess of unlabeled peptide. Tubes were shaken gently during the incubation. The contents of each tube were layered onto a layer of 0.8 ml of 10% sucrose in polypropylene Eppendorf tubes and the tubes centrifuged for 5 min at 8,000×g to separate cell-associated from free ligand. The tubes were then snap-frozen in a dry-ice/acetone bath and the bottom of the tube containing the cell pellet cut off and then counted in a gamma-scintillation spectrophotometer. In studies to determine how much of the uptake was due to endocytosis, binding/uptake was performed as described above with the exception that half of the monocytes were pretreated for 30 min at 37°C with cytochalasin B (10 µg/ml; Sigma; St. Louis, MO).

HUVEC = assay: Staurosporine-induced apoptosis in HUVEC (Cell Death Detection ELISA); format: cell-based, human; conditions: for protection against staurosporine-induced apoptosis: 50 µM peptide 3 h before staurosporine (500 nM), measured 18 h after staurosporine (Figure 11B)
Description: Apoptosis was measured in HUVEC using the Cell Death Detection ELISA^PLUS kit (Roche Diagnostics; Indianapolis, IN) according to the manufacturer's instructions. This assay is based on a quantitative sandwich-enzyme-immunoassay using mouse monoclonal antibodies directed against both DNA and histones, respectively. It allows the specific determination of mono- and oligonucleosomes in the cytoplasmic fraction of cell lysates (apoptosis) and in the supernatant of dying cells (necrosis). The apoptotic index (AI) was calculated as
where treatment refers to use of a known apoptosis- or necrosis-inducing agent (staurosporine, TNF-α).

## CC(C)C[C@H](NC(=O)CNC(=O)CNC(=O)[C@H](CCC(=O)O)NC(=O)[C@H](CCCCN)NC(=O)[C@H](CC(C)C)NC(=O)[C@H](Cc1ccccc1)NC(=O)[C@H](CC(C)C)NC(=O)[C@H](CC(C)C)NC(=O)[C@H](CC(=O)O)NC(=O)[C@H](CC(C)C)NC(=O)CNC(=O)[C@H](CCCNC(=N)N)NC(=O)[C@H](CCCNC(=N)N)NC(=O)[C@H](CC(N)=O)NC(=O)[C@H](CCC(N)=O)NC(=O)[C@@H](N)CC(C)C)C(=O)N[C@@H](CSSC[C@H](NC(=O)[C@H](CC(C)C)NC(=O)CNC(=O)CNC(=O)[C@H](CCC(=O)O)NC(=O)[C@H](CCCCN)NC(=O)[C@H](CC(C)C)NC(=O)[C@H](Cc1ccccc1)NC(=O)[C@H](CC(C)C)NC(=O)[C@H](CC(C)C)NC(=O)[C@H](CC(=O)O)NC(=O)[C@H](CC(C)C)NC(=O)CNC(=O)[C@H](CCCNC(=N)N)NC(=O)[C@H](CCCNC(=N)N)NC(=O)[C@H](CC(N)=O)NC(=O)[C@H](CCC(N)=O)NC(=O)[C@@H](N)CC(C)C)C(=O)O)C(=O)O [MN10021] (I: H-LQNRRGLDLLFLKEGGLC-OH / II: H-LQNRRGLDLLFLKEGGLC-OH; disulfide I:18-II:18)
TNF-α
  IC50: 6.2 µM
IL-6
  IC50: > 100 µM
GM-CSF
  IC50: 8 µM
PAF
  IC50: 12.5 µM
Chemotaxis
  IC50: 0.25 µM
Human blood monocytes
  inhibition of binding or uptake of [125I]-MN20054 by monocytes: ~65%
HUVEC
  protection against staurosporine-induced apoptosis: significant protection
HUVEC; 2 mM L-NAME 5 h, then 50 µM peptide 3 h, staurosporine 500 nM ON (Figure 12)
  effect of L-NAME pretreatment on protective effect against staurosporine-induced apoptosis: no effect
HUVEC; peptide added 3 h before staurosporine, up to 50 µM peptide, quadruplicate wells (Figure 10A, 10C)
  maximal protection against staurosporine-induced apoptosis: ~60%

## H-LGGEKLFLLDGRNQLC-OH (disulfide (positions not given here)) [MN20050]
TNF-α
  IC50: > 100 µM
IL-6
  IC50: > 100 µM
GM-CSF
  IC50: > 100 µM
PAF
  IC50: > 100 µM
Chemotaxis
  IC50: > 100 µM
Human blood monocytes
  inhibition of binding or uptake of [125I]-MN20054 by monocytes: < 10%
HUVEC
  protection against staurosporine-induced apoptosis: no protective effective
